Target: T1, VP16dEcR/RXR (Drosophila melanogaster, UniProt P34021)
T1 construct: expressed in transfected cells; host or cells: CHO
T1 sequence (P34021 252-878 limits assumed): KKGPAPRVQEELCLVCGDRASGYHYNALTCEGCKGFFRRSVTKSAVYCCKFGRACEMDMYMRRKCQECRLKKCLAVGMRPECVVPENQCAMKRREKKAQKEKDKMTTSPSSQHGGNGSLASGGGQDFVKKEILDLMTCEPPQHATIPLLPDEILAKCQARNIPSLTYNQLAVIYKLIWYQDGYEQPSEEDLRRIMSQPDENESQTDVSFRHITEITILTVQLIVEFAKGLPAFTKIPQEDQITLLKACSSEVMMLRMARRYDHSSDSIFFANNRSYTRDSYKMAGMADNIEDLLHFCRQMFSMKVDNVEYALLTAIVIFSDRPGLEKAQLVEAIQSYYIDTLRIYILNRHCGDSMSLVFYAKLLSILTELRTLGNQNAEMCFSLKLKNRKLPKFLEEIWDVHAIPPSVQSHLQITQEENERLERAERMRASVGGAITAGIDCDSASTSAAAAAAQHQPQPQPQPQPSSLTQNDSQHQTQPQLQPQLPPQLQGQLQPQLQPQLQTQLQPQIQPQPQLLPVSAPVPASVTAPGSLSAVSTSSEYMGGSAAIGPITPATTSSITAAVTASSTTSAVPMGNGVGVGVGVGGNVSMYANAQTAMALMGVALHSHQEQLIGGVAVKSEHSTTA
T1 sequence (P28700 1-467 partner): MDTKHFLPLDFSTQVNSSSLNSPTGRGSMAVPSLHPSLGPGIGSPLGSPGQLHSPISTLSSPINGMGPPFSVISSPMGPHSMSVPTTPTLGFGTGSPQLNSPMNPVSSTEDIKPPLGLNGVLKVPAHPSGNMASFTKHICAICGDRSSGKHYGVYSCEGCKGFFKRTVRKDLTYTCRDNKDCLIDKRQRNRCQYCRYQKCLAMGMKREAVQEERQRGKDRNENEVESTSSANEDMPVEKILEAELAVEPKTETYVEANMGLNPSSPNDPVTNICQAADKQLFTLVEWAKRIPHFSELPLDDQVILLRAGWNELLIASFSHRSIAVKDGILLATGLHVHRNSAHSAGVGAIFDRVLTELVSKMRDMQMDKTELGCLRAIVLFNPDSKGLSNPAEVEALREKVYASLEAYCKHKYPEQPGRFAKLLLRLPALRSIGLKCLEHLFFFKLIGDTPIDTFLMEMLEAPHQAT
Test: VP16dEcR with RXR, (EcRE)5-ΔMTV reporter in CHO cells
Assay type: cell-based
Design: key to MurA (inducibility): (+) designates a change in transcriptional level that exceeds 2.5-fold; (++) indicates a response at a lower dosage than other EcR forms
Procedure: These experiments employed a mammalian cell culture system using Chinese hamster ovary cells (CHO) to evaluate the transcriptional function of Drosophila melanogaster EcR and USP using methods described previously (U.S. Patent Application Publication No: 2005/0049230; Henrich et al, 2003). Cells were seeded in 6-well polypropylene culture plates (Falcon) with 10^5 cells per well on the day prior to transfection. Transfection was subsequently performed using either calcium phosphate (Kitareewan et al., 1996, Mol. Biol. Cell, 7:1153-1196) or a GenePorter reagent (Gene Therapy Systems, Inc; San Diego, Calif.) following manufacturer's protocols. Each well received 1.25 μg of (EcRE)5-ΔMTV-CAT (five copies of the hsp27 EcRE inserted into an mouse mammary tumor virus (MTV) promoter upstream of the chloramphenicol acetyltransferase (CAT) gene) or (EcRE)5-ΔMTV-LUC (the same promoter attached to firefly luciferase), 1.25 μg of pCH111 (SV40 early promoter linked to the β-galactosidase gene) to normalize CAT activity, and 0.25 μg of each expression plasmid (EcR, FXR, RXR, USP) that was tested. The cells were incubated with plasmid DNA for seven hours and then washed with 1×PBS. Muristerone A (murA; Alexis Biochemicals) or 20-hydroxyecdysone (20E; Sigma) dissolved in ethanol to a concentration of 10 mM was diluted as necessary to the final assay concentration (FAC) in 2 ml of fresh incubation medium that was then applied to the cells. Similarly, JHIII (Sigma) was dissolved in dimethyl sulfoxide (DMSO) to a concentration of 80 μM and diluted into the incubation medium to its final assay concentration (20, 40, 80, 160 μM). […] A corresponding volume of ethanol and DMSO were added to control cells for all experiments. […] Both β-galactosidase and CAT reporter activity were measured based on previously used methods (Kitareewan et al, 1996). […]
Transcriptional activity, measured as ^14C-chloramphenicol counts (for measuring CAT activity) or relative luciferase activity (RLU) was quantified for each cell lysate. […]

## CC(C)(O)CC[C@@H](O)[C@](C)(O)[C@H]1CC[C@@]2(O)C3=CC(=O)[C@@H]4C[C@@H](O)[C@@H](O)C[C@]4(C)[C@H]3CC[C@]12C [20E, 20-hydroxyecdysone]
10 μM 20E
  20E (inducibility): + ((+) designates a change in transcriptional level that exceeds 2.5-fold)

## COC(=O)/C=C(\C)CC/C=C(\C)CC[C@H]1OC1(C)C [JHIII, juvenile hormone III]
0.1 μM murA + 80 μM JHIII
  MurA + JHIII (JHIII potentiation): + ((+) indicates observed potentiation that exceeds 2-fold above the levels observed with ecdysteroid alone)

## CC(C)CC[C@@H](O)[C@](C)(O)[C@H]1CC[C@@]2(O)C3=CC(=O)[C@]4(O)C[C@@H](O)[C@@H](O)C[C@]4(C)[C@H]3[C@H](O)C[C@]12C [murA, muristerone A]
0.1 μM murA
  MurA (inducibility): ++
